Results taken from PubChem BioAssay AID977628 (Broad Institute, 2014).
Records with an inconclusive call do not appear. Calls of active or inactive are those of the source.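 Rule for the calls: active = compound lowering the normal-ribosome reporter at least twice as much as the humanized-ribosome reporter, growth loss under a set limit; inconclusive = no clear call, values can overlap the other calls; inactive = the rest.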

Tests used:
Assay in all cases: E. coli growth inhibition, wild-type GFP versus h24 humanized RFP strain, dose response, h24 mutant RFP vs wild-type GFP, cherry-pick (AID 977628);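 note: wild-type GFP and h24 humanized RFP strains co-cultured 1 to 1 per well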
[1] = tested on: E. coli WT GFP strain growth, fluorescence, 24 h
[2] = tested on: E. coli h24 humanized mutant RFP strain growth, fluorescence, 24 h
[3] = tested on: E. coli mixed WT/h24 culture total growth, OD600, 24 h

Cc1oc(-c2ccc(-c3ccccc3)cc2)nc1CN(C)C1CCOC1 (stereo not drawn)
AC50 [1]: > 100 µM (inactive) | AC50 [2]: > 100 µM | AC50 [3]: 49.9 µM

CCc1ccn2cc(-c3ccc4c(c3)OCO4)nc2c1
AC50 [1]: > 100 µM (inactive) | AC50 [2]: > 100 µM | AC50 [3]: > 100 µM

O=C(O)c1cccnc1SCc1ccccc1Cl
AC50 [1]: > 100 µM (inactive) | AC50 [2]: > 100 µM

C[C@]12C(=O)N(c3ccc(F)cc3)C(=O)N1[C@@H]1c3ccccc3OC[C@@H]1[C@H]2c1ccccc1
AC50 [2]: 5.36 µM | AC50 [3]: > 100 µM

COc1cc2cc(C(=O)Nc3ccc4c(c3)OCCO4)[nH]c2cc1OC
AC50 [2]: > 100 µM | AC50 [3]: > 100 µM

COc1ccccc1OCC(=O)Nc1ccc(S(=O)(=O)N2CCCCCC2)cc1
AC50 [1]: > 100 µM (inactive) | AC50 [2]: > 100 µM

CCN(C(=O)CSc1cc(C)c2ccc(OC)cc2n1)C1CCS(=O)(=O)C1 (stereo not drawn)
AC50 [2]: > 100 µM | AC50 [3]: > 100 µM

Cc1ccccc1-c1nc(CS(=O)(=O)CC(=O)N2CCCCC2)c(C)o1
AC50 [2]: > 100 µM | AC50 [3]: > 100 µM

CCOc1ccc(S(=O)(=O)N(C)c2ccc(OCC(=O)Nc3ccc4[nH]c(=O)[nH]c4c3)cc2)cc1
AC50 [1]: > 100 µM (inactive) | AC50 [2]: > 100 µM

COc1cc(NC(=O)COC(=O)CC(C)(C)C)c(C)cc1[N+](=O)[O-]
AC50 [1]: > 100 µM (inactive) | AC50 [2]: > 100 µM | AC50 [3]: > 100 µM

CNC(=O)c1ccsc1NC(=O)c1ccc2c(c1)CCCC2
AC50 [1]: > 100 µM (inactive) | AC50 [2]: 6.81 µM | AC50 [3]: > 100 µM

COc1ccccc1-c1nnc(C2CCN(S(=O)(=O)c3cccc([N+](=O)[O-])c3)CC2)o1
AC50 [1]: > 100 µM (inactive) | AC50 [2]: > 100 µM | AC50 [3]: > 100 µM

Cc1nnc2sc(SCC(=O)Nc3ccc(Br)cc3)nn2c1=O
AC50 [1]: > 100 µM (inactive) | AC50 [2]: > 100 µM | AC50 [3]: > 100 µM

Cc1ccc(-c2nc3ccc(NS(=O)(=O)c4ccccc4)cc3[nH]2)o1
AC50 [1]: > 100 µM (inactive) | AC50 [2]: 5.12 µM

COc1ccccc1C(=O)Nc1cccc2cccnc12
AC50 [1]: > 100 µM (inactive) | AC50 [2]: 10.2 µM | AC50 [3]: > 100 µM

Clc1ccc2nc(CN3CCCc4ccccc43)cn2c1
AC50 [1]: > 100 µM (inactive) | AC50 [2]: > 100 µM

Cc1nc(C)c(-c2ccn(S(=O)(=O)c3ccc(Cl)cc3)n2)o1
AC50 [1]: > 100 µM (inactive) | AC50 [2]: > 100 µM | AC50 [3]: 45.5 µM

Cc1ccc(CNS(=O)(=O)c2ccc3c(c2)NC(=O)CS3)cc1
AC50 [1]: > 100 µM (inactive) | AC50 [2]: 8.08 µM

O=C(O)c1ccc(-c2noc(-c3cccc(Cl)c3)n2)cc1
AC50 [1]: > 100 µM (inactive) | AC50 [2]: > 100 µM

Nc1ccccc1Sc1ccc(C(F)(F)F)cc1[N+](=O)[O-]
AC50 [1]: > 100 µM (inactive) | AC50 [2]: > 100 µM | AC50 [3]: 52.3 µM

CCN(CC)CCN(C(=O)C1CCCCC1)c1nc2cc3c(cc2s1)OCO3
AC50 [1]: > 100 µM (inactive) | AC50 [2]: > 100 µM

CCc1cc2cc(OC)ccc2nc1SCC(=O)Nc1cc(OC)c(OC)cc1C(=O)O
AC50 [2]: > 100 µM | AC50 [3]: > 100 µM

O=C(COC(=O)C1CC2C=CC1C2)Nc1ccc([N+](=O)[O-])cc1 (stereo not drawn)
AC50 [2]: > 100 µM | AC50 [3]: > 100 µM

COc1ccccc1CNC(=O)CN1C(=O)NC(c2ccccc2)(c2ccccc2)C1=O
AC50 [1]: > 100 µM (inactive) | AC50 [2]: > 100 µM | AC50 [3]: > 100 µM

Cc1ccc(C(=O)Nc2cccc3[nH]c(C(F)(F)F)nc23)cc1
AC50 [1]: > 100 µM (inactive) | AC50 [2]: > 100 µM | AC50 [3]: > 100 µM

CC(=O)Nc1nc(C)c(-c2csc(Nc3ccccn3)n2)s1
AC50 [1]: > 100 µM (inactive) | AC50 [2]: > 100 µM

CC(=O)Nc1ccc2nc3ccccc3nc2c1
AC50 [1]: > 100 µM (inactive) | AC50 [2]: > 100 µM

O=C(Cc1ccc(NC(=O)C2CCCN(C(=O)CCc3ccccc3)C2)cc1)Nc1cccc(C(=O)N2CCCC2)c1 (stereo not drawn)
AC50 [1]: > 100 µM (inactive) | AC50 [2]: > 100 µM

N#Cc1ccsc1NC(=O)CSc1nnnn1-c1ccc(O)cc1
AC50 [1]: > 100 µM (inactive) | AC50 [2]: > 100 µM

O=C(Nc1cccc(Oc2ccc3c(c2)C(=O)NC3=O)c1)c1cccs1
AC50 [1]: > 100 µM (inactive) | AC50 [2]: > 100 µM

COc1ccccc1NC(=O)COC(=O)Cc1c[nH]c2ccccc12
AC50 [2]: > 100 µM

CCOc1cc(/C=C(\CC(=O)O)c2nc3ccccc3s2)ccc1OC
AC50 [2]: > 100 µM

CC(C)CNC(=O)c1cccc(NC(=O)C(C)Oc2ccccc2)c1 (stereo not drawn)
AC50 [2]: > 100 µM | AC50 [3]: > 100 µM

O=C(CSCc1cnn(-c2ccccc2)c1-n1cccc1)NCc1cccnc1
AC50 [2]: > 100 µM

COC(C(=O)Nc1ccnn1C1CCN(Cc2ccc(Cl)s2)CC1)c1ccccc1 (stereo not drawn)
AC50 [2]: > 100 µM | AC50 [3]: > 100 µM

C=CCNC(=O)c1ccccc1CCc1ccccc1
AC50 [2]: > 100 µM

O=c1[nH]n2c(-c3ccccc3)nc(O)c2c2ccccc12
AC50 [1]: > 100 µM (inactive) | AC50 [2]: 36.6 µM

Cc1ccc(C(=O)Nc2ccc3ncccc3c2)cc1
AC50 [2]: > 100 µM

O=C(Nc1cccc(O)c1)c1cccc(S(=O)(=O)Nc2cccc(O)c2)c1
AC50 [2]: > 100 µM

Cc1nn(C)cc1NC(=O)C[C@@H]1CC[C@@H]2[C@@H](COc3ccc(NC(=O)C4CCC4)cc3C(=O)N2C)O1
AC50 [1]: > 100 µM (inactive) | AC50 [2]: 3.9 µM

Cn1cnc([N+](=O)[O-])c1Oc1ccccc1
AC50 [2]: > 100 µM

CCCN(Cc1ccco1)S(=O)(=O)c1ccc(OC)c(OC)c1
AC50 [2]: > 100 µM | AC50 [3]: > 100 µM

CCOC(=O)[C@]12Cc3ccccc3[C@H]1N(C)C(=O)c1cc(OC)ccc12
AC50 [1]: > 100 µM (inactive) | AC50 [2]: > 100 µM

O=C(Nc1ccc(Br)cc1)c1cccnc1N1CCCCC1
AC50 [2]: > 100 µM

COC(=O)c1ccccc1NC(=O)c1ccc2c(c1)CC(C)O2 (stereo not drawn)
AC50 [1]: > 100 µM (inactive) | AC50 [2]: > 100 µM

COc1ccc(CNC(=O)CSCc2c(F)cccc2Cl)cc1
AC50 [1]: > 100 µM (inactive) | AC50 [2]: > 100 µM

O=C(CSCc1ccc(Br)cc1)NCc1ccccn1
AC50 [2]: > 100 µM

Cc1cccc(CSCC(=O)N2CCN(S(=O)(=O)c3ccccc3C#N)CC2)c1
AC50 [1]: > 100 µM (inactive) | AC50 [2]: > 100 µM

COc1ccc2oc(C(=O)NCc3ccco3)c(C)c2c1
AC50 [1]: > 100 µM (inactive) | AC50 [2]: > 100 µM

CCCC(=O)Nc1cccc(C(=O)Nc2ccccc2OCC)c1
AC50 [2]: > 100 µM

Cc1ccc(NC(=O)c2ccc(NCCCN3CCC(C)CC3)c([N+](=O)[O-])c2)cc1F
AC50 [1]: > 100 µM (inactive) | AC50 [2]: 11.1 µM

COC(=O)c1ccsc1NC(=O)c1cccc(OC)c1
AC50 [2]: > 100 µM | AC50 [3]: > 100 µM

O=C(NCc1ccccc1Cl)c1ccc2c(c1)SC1=NS(=O)(=O)CCN12
AC50 [2]: > 100 µM

C#CC(C)(C)NC(=O)c1ccc(-c2ccccc2F)cc1
AC50 [2]: > 100 µM

COCc1ccc(C(=O)N2CCCC(C(=O)c3ccc(Cl)cc3C)C2)o1 (stereo not drawn)
AC50 [2]: > 100 µM | AC50 [3]: > 100 µM

COc1ccc2c(c1)c1ncn(Cc3ccccn3)c(=O)c1n2C
AC50 [2]: > 100 µM

CCOc1ccc2oc(-c3ccccc3)c(C(=O)N(C)C)c2c1
AC50 [2]: > 100 µM

Cc1cc(C)cc(NC(=O)c2cccc(NC(=O)c3ccco3)c2)c1
AC50 [1]: > 100 µM (inactive) | AC50 [2]: > 100 µM

C(=C/c1nccc2c1[nH]c1ccccc12)/c1ccc2c(c1)OCO2
AC50 [2]: > 100 µM

CC(NC(=O)c1ccncc1)c1ccc(Cl)cc1Cl (stereo not drawn)
AC50 [2]: > 100 µM

COC(=O)c1cc2ccccc2n1S(=O)(=O)c1ccccc1
AC50 [2]: > 100 µM

CC(=O)NS(=O)(=O)c1ccc(NC(=O)COc2ccc(C(=O)c3ccccc3)cc2)cc1
AC50 [1]: > 100 µM (inactive) | AC50 [2]: > 100 µM

COc1ccc(NC(=O)c2sccc2-n2cccc2)cc1
AC50 [1]: > 100 µM (inactive) | AC50 [2]: > 100 µM

O=C(CN1C(=O)c2ccccc2C1=O)Nc1cccc(S(=O)(=O)Nc2ccccc2Cl)c1
AC50 [1]: > 100 µM (inactive) | AC50 [2]: > 100 µM

N#Cc1nc(-c2ccco2)oc1NCc1ccccc1Cl
AC50 [2]: > 100 µM

CSc1nc2nc3c(cc2c(=O)n1-c1ccccc1C)CCCC3
AC50 [2]: 6.76 µM

CCc1cccc(NC(=O)CN(C)S(=O)(=O)c2cccc3cccnc23)c1
AC50 [2]: > 100 µM

O=C(NCCC1=CCCCC1)c1ccc(Cl)c(S(=O)(=O)Nc2ccccc2)c1
AC50 [1]: > 100 µM (inactive) | AC50 [2]: > 100 µM

COCC(C)NC(=O)c1nn(Cc2ccccc2)c(=O)c2ccccc12 (stereo not drawn)
AC50 [2]: > 100 µM

CCOC(=O)C(C)Sc1nc(N2CCOCC2)c2c(c1C#N)CC(C)(C)OC2 (stereo not drawn)
AC50 [2]: > 100 µM

Cc1cc(C(=O)c2ccc3ccccc3c2)c(C)o1
AC50 [1]: > 100 µM (inactive) | AC50 [2]: > 100 µM

O=C(NCCc1ccccc1)c1ccc2c(c1)S(=O)(=O)c1ccccc1C2=O
AC50 [1]: > 100 µM (inactive) | AC50 [2]: > 100 µM

COc1cc(C)ccc1OCc1cc(C(=O)N2CCC(c3ccc(F)cc3)C2)no1 (stereo not drawn)
AC50 [1]: > 100 µM (inactive) | AC50 [2]: > 100 µM

c1ccc(CSCc2ccccc2)cc1
AC50 [2]: > 100 µM

CCCCCc1nnc(NC(=O)C2COc3ccccc3O2)s1 (stereo not drawn)
AC50 [2]: > 100 µM | AC50 [3]: > 100 µM

CCOc1ccc(S(=O)(=O)N(C)c2ccc(OCC(=O)NCc3cccnc3)cc2)cc1
AC50 [2]: > 100 µM

CN(c1ccccc1)S(=O)(=O)c1cccc(NC(=O)CCN2C(=O)C3CCCCC3C2=O)c1 (stereo not drawn)
AC50 [1]: > 100 µM (inactive) | AC50 [2]: 9.42 µM

COc1ccc(NC(=O)c2nc[nH]c2C(=O)N(C)Cc2ccccc2)cc1
AC50 [1]: > 100 µM (inactive) | AC50 [2]: > 100 µM

O=C1C(c2ccccc2)c2ccccc2N1Cc1ccccc1 (stereo not drawn)
AC50 [1]: > 100 µM (inactive) | AC50 [2]: > 100 µM

O=C1c2ccccc2C(c2nnnn2C2CCCCC2)N1CCc1ccc(O)cc1 (stereo not drawn)
AC50 [2]: > 100 µM

O=S(=O)(NCc1ccc2c(c1)OCO2)c1ccc2c(c1)oc1ccccc12
AC50 [1]: > 100 µM (inactive) | AC50 [2]: > 100 µM

CSc1nnnn1-c1ccc(Cl)cc1
AC50 [2]: > 100 µM | AC50 [3]: > 100 µM

O=C(Nc1ccc(S(=O)(=O)N2CCOCC2)cc1)c1ccc([N+](=O)[O-])o1
AC50 [1]: > 100 µM (inactive) | AC50 [2]: 50.9 µM

Cc1ccccc1-n1ncc2c(SCC(=O)N3c4ccccc4CC3C)ncnc21 (stereo not drawn)
AC50 [1]: > 100 µM (inactive) | AC50 [2]: > 100 µM

O=C(Nc1cccc2ccccc12)c1ccc([N+](=O)[O-])o1
AC50 [1]: > 100 µM (inactive) | AC50 [2]: > 100 µM

COc1ccc(CCNc2nc(-c3ccncc3)cs2)cc1OC
AC50 [1]: > 100 µM (inactive) | AC50 [2]: > 100 µM
